Here are results for nine compounds from PubChem BioAssay AID1963830 (Molecular Pharmacology Branch, DTP, NCI, 2024).

The test has as its system 922993-354-T-J3-PDC complex spheroid viability. As to the kind of experiment: Anticancer human tumor 922993-354-T-J3-PDC patient-derived endometrial carcinoma cell line growth inhibition [POLQ]. The following applies: for viability, T/C: stronger effect = lower value. As for the experimental part: Multicellular complex tumor spheroid response to Polymerase (POL) inhibitors (novobiocin, ART-558, RP6685) in combination with a variety of drugs and investigational agents in selected tumor cell lines
The POL inhibitors (novobiocin, ART-558, and RP6685) were evaluated both individually and in combination with standard of care and investigational anticancer small molecules within a complex spheroid model of solid tumors. . Complex spheroids include a stromal component modeled by human endothelial cells (HUVEC) and fibroblasts modeled by human mesenchymal stem cells (MSCs). The concentration ranges selected for each drug and investigational agent were based upon clinically achievable concentrations if the clinical Cmax of the agent was known.
Compounds. The drugs and investigational agents: novobiocin (NSC847541), ART-558 (NSC835418), RP-6685 (NSC848927), peposertib (NSC802822), ceralasertib (NSC780249), elimusertib (NSC800525), camonsertib (NSC841442), AZD-1390 (NSC803789), olaparib (NSC753686), talazoparib (NSC767125), rucaparib (NSC756644), sotorasib (NSC818433), MRTX-1133 (NSC836407), SN-38 (NSC673596), topotecan (NSC609699), epotoside (NSC141540), doxorubicin (NSC123127), gemcitabine (NSC613327), 5-fluorouracil (NSC19893), paclitaxel (NSC125973), vemurafenib (NSC761431), MSA-2 (NSC828583), SN-011 (NSC837082), adavosertib (NSC754352), prexasertib (NSC758257), carboplatin (NSC241240) and oxaliplatin (NSC266046), were obtained from the National Cancer Institute (NCI) Developmental Therapeutics Program Chemical Repository (21). The FDA-approved anticancer drug set is available from the Developmental Therapeutics Program at https://dtp.cancer.gov/organization/dscb/obtaining/. […] The stock solutions were prepared in dimethyl sulfoxide (DMSO, Sigma-Aldrich, St. Louis, MO, cat. D2650), except for the platinum compounds which were prepared in saline (Quality Biological, Gaithersburg, MD, cat. 114-055-101), at 800-fold the tested concentration and stored at -70 degrees C prior to their use. All drugs and investigational agents were tested over a range starting from a high concentration at or near the clinical Cmax and decreasing in half-log increments. If the clinical Cmax for an agent had not been determined, the highest concentration tested was 10 microM, except for SN-38, which was tested at a high concentration of 1 microM.
Cell Culture. All cells were maintained in an incubator at 37 degrees C and 5% CO2 with 95% humidity. The PDC lines were cultured according to standard operating procedures established by the NCI PDMR (https://pdmr.cancer.gov). Table 3 of the manuscript, lists the cell lines along with the number of the three cell types plated to form the mct-spheroids and media for tumor cell growth. After thawing, all PDC lines, except 997537-175-T-J1-PDC and 415267-285-R-J2-PDC, were cultured in Matrigel-coated flasks prepared with a working solution of 1X Ham's F-12 nutrient mix, without supplementation (Thermo Fisher Scientific, cat. 11765054), 100 U/mL penicillin-streptomycin (Thermo Fisher Scientific, cat. 15140122), and 2.5% Matrigel (Corning Inc., Corning, NY, cat. 354248) for the first three passages. The two PDC lines 997537-175-T-J1-PDC and 415267-285-R-J2-PDC were cultured on uncoated flasks. The 857933-349-R-J2-PDC line was cultured in 6C/Colon 1B media containing advanced DMEM/F-12 (Thermo Fisher Scientific, cat. 12634028), 10 mM HEPES (Thermo Fisher Scientific, cat. 15630080), 1X GlutaMAX supplement (Thermo Fisher Scientific, cat. 35050061), 0.1 mg/mL primocin (InvivoGen, San Diego, CA, cat. ant-pm-2), 10% defined fetal bovine serum, heat inactivated (HyClone Laboratories Inc., Logan, UT, cat. SH30070.03HI), 50% L-WRN conditioned media (ATCC, cat. CRL-3276), 1.25 mM N-Acetyl-L-cysteine (Sigma-Aldrich, cat. A9165), 10 mM nicotinamide (Sigma-Aldrich, cat. N0636), 1X B-27 supplement (Thermo Fisher Scientific, cat. 17504044), 1X N-2 supplement (Thermo Fisher Scientific, cat. […]

Setting [1] is: compound alone, run of 11/06/2023.

Values joined by “and” are separate entries in the source; they are usually repeats but may differ in a detail not shown here. Equal values may be shown once.
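Also: spheroids exposed to the agents for one week.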
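For viability, T/C in this document: 100% = DMSO vehicle control wells.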

For `COc1ccc([C@@H](O)c2cc(-c3ncnc4cc(N5CCOCC5)ccc34)c(F)cc2Cl)nn1`, the viability, T/C runs as follows: (compound 0.0316 µM) 95.5% and 103% and 107%; (compound 0.1 µM) 84.6% and 101% and 89.6%; (compound 0.316 µM) 99.2% and 98.3% and 96.1%; (compound 1 µM) 92.9% and 97.3% and 99.2%; (compound 3.16 µM) 78.1% and 90.2% and 83.4%; (compound 10 µM) 57% and 75% and 62.1%. The 50% inhibitory concentration (IC50) (curve of compound) was above 10000 nM.

`COc1cccc(OCCCN)c1-c1cc(Nc2cnc(C#N)cn2)n[nH]1`: the viability, T/C is 95.3% and 103% (2×) (compound 0.00316 µM); 89.9% and 104% and 99.4% (compound 0.01 µM); 72% and 101% and 96.2% (compound 0.0316 µM); 80.4% and 102% (2×) (compound 0.1 µM); 16.6% and 92.8% and 90.4% (compound 0.316 µM); 12.3% and 21.8% and 21.6% (compound 1 µM). For the same compound, the IC50 (curve of compound) is 173 nM and 633 nM and 623 nM.

Regarding `COc1cccc2c1C(=O)c1c(O)c3c(c(O)c1C2=O)CC(O)(C(=O)CO)CC3OC1CC(N)C(O)C(C)O1` (centres undefined), the viability, T/C (compound 0.0316 µM) was 95.6% and 102% and 94.8%; the viability, T/C (compound 0.1 µM) is 84.5% and 106% and 91.1%; the viability, T/C (compound 0.316 µM) is 79.2% and 99.9% and 86.9%; the viability, T/C (compound 1 µM) was 49.4% and 91.8% and 61.5%; the viability, T/C (compound 3.16 µM) was 30% and 74.5% and 31.3%; the viability, T/C (compound 10 µM) was 12.6% and 30.7% and 10.1%. Further, for the setting “curve of compound”, the concentration for half-maximal inhibition (IC50) is 1120 nM and 6000 nM and 1580 nM.

For `Cc1cccc(N(C)C(=O)C2C(O)CCN2c2nc(C)cc(C(F)(F)F)c2C#N)c1` (centres undefined), the viability, T/C (compound 0.0316 µM) was 102% [middle of 13 runs]; the viability, T/C (compound 0.1 µM) was 101% [middle of 13 runs]; the viability, T/C (compound 0.316 µM) was 103% [middle of 13 runs]; the viability, T/C (compound 1 µM) was 103% [middle of 13 runs]; the viability, T/C (compound 3.16 µM) was 103% [middle of 13 runs]; the viability, T/C (compound 10 µM) was 105% [middle of 13 runs]. The IC50 is, setting by setting: (compound alone, run of 10/31/2023) above 10000 nM; under setting [1], above 10000 nM.

As for `Cn1ncnc1[C@H]1c2n[nH]c(=O)c3cc(F)cc(c23)N[C@@H]1c1ccc(F)cc1`, the viability, T/C by setting is: (compound 0.000316 µM) 93.8% and 97.3% and 106%; (compound 0.001 µM) 88.3% and 96.2% and 93.8%; (compound 0.00316 µM) 94% and 101% and 93.7%; (compound 0.01 µM) 103% and 100% and 109%; (compound 0.0316 µM) 94.3% and 98.1% and 96.2%; (compound 0.1 µM) 79.3% and 83.4% and 61%. Further, the half-maximal inhibitory concentration (IC50) (curve of compound) is above 100 nM.

`Nc1ccc(C#CCN(C(=O)Cc2ncc(C(F)(F)F)cc2C(F)(F)F)c2ccc(F)cc2)nn1`: the viability, T/C by setting is: (compound 0.0316 µM) 103% [middle of 13 runs]; (compound 0.1 µM) 102% [middle of 12 runs]; (compound 0.316 µM) 102% [middle of 13 runs]; (compound 1 µM) 101% [middle of 13 runs]; (compound 3.16 µM) 101% [middle of 13 runs]; (compound 10 µM) 98% [middle of 13 runs]. For the same compound, under setting [1], the IC50 is above 10000 nM.

Take `Nc1ccn(C2OC(CO)C(O)C2(F)F)c(=O)n1` (centres undefined): the viability, T/C runs as follows: (compound 0.0316 µM) 13.5% and 24% and 10.2%; (compound 0.1 µM) 9.54% and 19.8% and 10.8%; (compound 0.316 µM) 11.1% and 19.8% and 8.64%; (compound 1 µM) 12.2% and 17.1% and 9.88%; (compound 3.16 µM) 9.68% and 23.8% and 9.1%; (compound 10 µM) 8.4% and 22.9% and 7.7%. Besides, the IC50 (curve of compound) is below 31.6 nM.

Consider `O=C(c1cc(Cc2n[nH]c(=O)c3ccccc23)ccc1F)N1CCN(C(=O)C2CC2)CC1`, for which the viability, T/C was 107% and 111% and 103% (compound 0.0316 µM); 100% and 97.4% and 101% (compound 0.1 µM); 95.3% and 93.3% and 102% (compound 0.316 µM); 106% and 94% and 101% (compound 1 µM); 92% and 94% and 104% (compound 3.16 µM); 96.9% and 99.4% and 94.8% (compound 10 µM). For the setting “curve of compound”, the concentration for half-maximal inhibition (IC50) was above 10000 nM.

Turning to `O=c1[nH]cc(F)c(=O)[nH]1`, the viability, T/C by setting is: (compound 0.0316 µM) 92.3% and 104% and 112%; (compound 0.1 µM) 105% and 101% and 99.1%; (compound 0.316 µM) 95% and 101% and 95.6%; (compound 1 µM) 101% and 105% and 99.3%; (compound 3.16 µM) 30.5% and 79.5% and 27.9%; (compound 10 µM) 14.8% and 24.6% and 17.6%. Also, the IC50 (curve of compound) is 2270 nM and 5890 nM and 2210 nM.
